Results from patent publication US20200208108A1, “INTERFERON PRIMED PLASMACYTOID DENDRITIC CELLS” (AARHUS UNIVERSITET, priority 2017, published 2020).

Legend:
Assay type in all cases: cell-based, human
HSPC-pDCs [1] = assay: IL-6 in supernatants after TLR7/TLR9 agonist stimulation (ELISA); conditions: separate priming; TLR7 and TLR9 agonists
Method: (§1) HSPC-pDCs were cultured in RPMI-1640 medium with 10% heat inactivated FCS, 600 μg/mL L-glutamine, 200 U/mL penicillin and 100 μg/mL streptomycin, but depleted for growth factors used for the cultivation process. As described in individual figure legends, medium was supplemented with IFN-β (PBL Assay Science), IFN-γ (PeproTech) or both cytokines simultaneously (IFN-β+γ). After 24 (day 21+1) or 72 (day 21+3) hours, cells were washed in warm medium, and phenotypically or functionally characterized.
(§2) For functional characterization, cells were seeded in 96-well plates. During stimulation cells were kept in medium with 20 ng/mL IL-3. Twenty hours post stimulation supernatants were harvested and kept at −20° C. until cytokine quantifications. For phenotypic characterization, primed cells were seeded out in 48-well plates and stimulated for 24 hours before phenotypic analysis by flow cytometry.
Protein levels of IL-6 in supernatants were evaluated using ELISA kits (Biolegend) following the manufacturers instructions.

HSPC-pDCs [2] = assay: Phenotypic analysis of pDC-related and maturation surface markers by flow cytometry; conditions: priming from day 21, with IL-3
Method: as §1, §2
Immunophenotypical analysis was performed using flow cytometry. Briefly, 2×10^5 cells were spun down and resuspended in PBS with 0.5% BSA and 0.09% NaN3. […] Fluorescence intensities were measured on a LSR Fortessa flow cytometer (Becton Dickinson) with four lasers (405, 488, 561 and 640 nm) and 18 photomultiplier (PMT) detectors. […] Data were analyzed using FlowJo software (version 10, Tree Star, Ashland, Oreg., USA). […]

HSPC-pDCs [3] = assay: Functional type I IFN in supernatants after TLR7/TLR9 agonist stimulation (HEK-Blue IFN-α/β reporter); conditions: separate priming; TLR7 and TLR9 agonists
Method: as §1, §2
Bioactive functional type I IFN was quantified in supernatants using the reporter cell line HEK-Blue™ IFN-α/β (Invivogen). The cell line was maintained in DMEM+GlutaMax™-I (Gibco®, Life Technologies), supplemented with 10% heat-inactivated FCS, 100 μg/mL streptomycin and 200 U/mL penicillin, 100 μg/mL normocin (InvivoGen), 30 μg/mL blasticidin (InvivoGen) and 100 μg/mL zeocin (InvivoGen). […] SEAP activity was assessed by measuring optical density (OD) at 620 nm on a microplate reader (ELx808, BioTEK). […]

IFN-γ: recombinant IFN-γ (PeproTech) used for priming
secretion of IL-6 by primed HSPC-pDCs (HSPC-pDCs [1]): predominantly promoted
expression levels of CD303 and CD304 on HSPC-pDCs after priming (HSPC-pDCs [2]): improved
promotion of type I IFN response in comparison to IFN-β (HSPC-pDCs [3]): less effective
